Results as given in ChEMBL document CHEMBL1201862, “PubChem BioAssay data set” (2004).
The source made the active and inactive calls.

Assays:
HEK293 [1] = test: inhibition of NOD1-driven NF-kB reporter – cell-based, luminescence, uHTS, primary screen (AID 1578); format: functional; conditions: Homo sapiens
HEK293 [2] = test: cells; format: functional, cell-based; conditions: Homo sapiens
HEK293 [3] = test: cells; format: functional, cell-based; conditions: Homo sapiens; remark: listed apart in the source
[4] = biological target: Nucleotide-binding oligomerization domain-containing protein 2 (Homo sapiens, UniProt Q9HC29); test: inhibition of NOD2-driven NF-kB reporter – cell-based, luminescence, uHTS, HEK293 (AID 1566); format: functional
HEK293 [5] = test: NOD2 signaling inhibitors in MDP-stimulated cells, cell-based, uHTS, luminescence (AID 2001); format: functional; conditions: Homo sapiens
HEK293 [6] = test: cells; format: functional, cell-based; conditions: Homo sapiens; remark: listed apart in the source
Nonstructural protein 1 = Nonstructural protein 1 (Influenza A virus, UniProt Q194T2); format: functional, Influenza A virus (A/California/07/2009(H1N1))
Escherichia coli [7] = test: microbe, parasite or virus in culture
Escherichia coli [8] = test: microbe, parasite or virus in culture; remark: listed apart in the source
HEK293 [9] = test: cells; conditions: Homo sapiens
HEK293 [10] = test: cells; conditions: Homo sapiens; remark: listed apart in the source
[11] = tested on: Streptococcus sp. 'group A'; test: Streptococcus pyogenes SK(-)GAS viability under kanamycin – luminescence, BacTiterGlo, confirmation, counter-screen for streptokinase expression inhibitor project, dose response (AID 1900); format: functional, organism-based
Streptokinase A = biological target: T1, Streptokinase A (Streptococcus pyogenes serotype M1, UniProt P10520); test: viability-normalized secreted streptokinase activity reduction – plasminogen activation absorbance, OD405, dose response (AID 1914); format: functional, Streptococcus pyogenes M1 GAS;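 further: secreted streptokinase activity via plasminogen activation per viability signal from cell pellet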
T1 sequence (P10520 whole entry): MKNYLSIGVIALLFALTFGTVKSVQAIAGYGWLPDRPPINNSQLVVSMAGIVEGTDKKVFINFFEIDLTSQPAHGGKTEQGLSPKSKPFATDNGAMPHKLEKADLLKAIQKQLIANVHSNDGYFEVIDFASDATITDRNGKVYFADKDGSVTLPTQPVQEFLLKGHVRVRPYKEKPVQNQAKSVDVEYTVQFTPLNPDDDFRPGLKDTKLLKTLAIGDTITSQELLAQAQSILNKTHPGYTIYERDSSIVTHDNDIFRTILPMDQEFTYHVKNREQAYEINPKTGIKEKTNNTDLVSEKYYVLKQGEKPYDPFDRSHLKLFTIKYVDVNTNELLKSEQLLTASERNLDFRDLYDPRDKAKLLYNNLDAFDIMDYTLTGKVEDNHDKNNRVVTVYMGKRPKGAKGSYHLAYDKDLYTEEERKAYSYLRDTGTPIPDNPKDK

Streptococcus = test: GAS UMAA2166 growth inhibition – luminescence, BacTiterGlo, counter-screen for streptokinase expression inhibitor project, dose response (AID 1915); format: functional, organism-based;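 further: potency for reduction of bacterial viability or growth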
[12] = biological target: T2, Ubiquitin-conjugating enzyme E2 N (Homo sapiens, UniProt P61088); format: functional;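 further: Dose-response confirmation in a TR-FRET assay detecting UBC13-driven polyubiquitin chain formation, inhibition measured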
T2 sequence (P61088 whole entry): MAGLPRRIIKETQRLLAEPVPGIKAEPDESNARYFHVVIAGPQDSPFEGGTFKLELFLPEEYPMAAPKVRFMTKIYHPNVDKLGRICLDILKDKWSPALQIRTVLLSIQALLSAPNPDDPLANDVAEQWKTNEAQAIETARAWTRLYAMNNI

INS1 = test: INS-1E survival protection against cytokine death – cell-based, luminescence, retest, dose response (AID 449756); format: functional; conditions: Rattus norvegicus;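 further: cell death triggered by IL-1 beta plus TNF-alpha plus IFN-gamma mixture; protective hits raise ATP signal compared with cytokine alone wells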
Trypsin = Trypsin (Sus scrofa, UniProt P00761); test: trypsin protease activity blockade – biochemical, quenched peptide fluorescence, cherry-pick, selectivity assay for Rce1 protease inhibitor project, dose response (AID 488789)
CAAX prenyl protease 2 [13] = biological target: CAAX prenyl protease 2 (Saccharomyces cerevisiae S288c, UniProt Q03530); format: biochemical
CAAX prenyl protease 2 [14] = biological target: CAAX prenyl protease 2 (Homo sapiens, UniProt Q9Y256); test: inhibition of Ras-converting CAAX protease Rce1 – biochemical, yeast membranes, quenched-peptide fluorescence, cherry-pick, dose response (AID 588849)
CAAX prenyl protease 2 (Homo sapiens, UniProt Q9Y256), sequence (Q9Y256 whole entry): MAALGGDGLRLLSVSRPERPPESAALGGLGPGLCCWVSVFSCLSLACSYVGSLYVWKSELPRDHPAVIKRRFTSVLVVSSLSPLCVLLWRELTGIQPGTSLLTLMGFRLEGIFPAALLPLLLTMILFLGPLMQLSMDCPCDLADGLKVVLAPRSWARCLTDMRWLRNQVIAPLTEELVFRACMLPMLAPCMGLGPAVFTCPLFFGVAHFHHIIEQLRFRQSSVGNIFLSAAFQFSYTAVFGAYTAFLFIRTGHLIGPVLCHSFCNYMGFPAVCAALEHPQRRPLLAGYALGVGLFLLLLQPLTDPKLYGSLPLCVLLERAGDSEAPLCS

Nucleotide-binding oligomerization domain-containing protein 2, sequence (Q9HC29 whole entry, the tested form may be a part): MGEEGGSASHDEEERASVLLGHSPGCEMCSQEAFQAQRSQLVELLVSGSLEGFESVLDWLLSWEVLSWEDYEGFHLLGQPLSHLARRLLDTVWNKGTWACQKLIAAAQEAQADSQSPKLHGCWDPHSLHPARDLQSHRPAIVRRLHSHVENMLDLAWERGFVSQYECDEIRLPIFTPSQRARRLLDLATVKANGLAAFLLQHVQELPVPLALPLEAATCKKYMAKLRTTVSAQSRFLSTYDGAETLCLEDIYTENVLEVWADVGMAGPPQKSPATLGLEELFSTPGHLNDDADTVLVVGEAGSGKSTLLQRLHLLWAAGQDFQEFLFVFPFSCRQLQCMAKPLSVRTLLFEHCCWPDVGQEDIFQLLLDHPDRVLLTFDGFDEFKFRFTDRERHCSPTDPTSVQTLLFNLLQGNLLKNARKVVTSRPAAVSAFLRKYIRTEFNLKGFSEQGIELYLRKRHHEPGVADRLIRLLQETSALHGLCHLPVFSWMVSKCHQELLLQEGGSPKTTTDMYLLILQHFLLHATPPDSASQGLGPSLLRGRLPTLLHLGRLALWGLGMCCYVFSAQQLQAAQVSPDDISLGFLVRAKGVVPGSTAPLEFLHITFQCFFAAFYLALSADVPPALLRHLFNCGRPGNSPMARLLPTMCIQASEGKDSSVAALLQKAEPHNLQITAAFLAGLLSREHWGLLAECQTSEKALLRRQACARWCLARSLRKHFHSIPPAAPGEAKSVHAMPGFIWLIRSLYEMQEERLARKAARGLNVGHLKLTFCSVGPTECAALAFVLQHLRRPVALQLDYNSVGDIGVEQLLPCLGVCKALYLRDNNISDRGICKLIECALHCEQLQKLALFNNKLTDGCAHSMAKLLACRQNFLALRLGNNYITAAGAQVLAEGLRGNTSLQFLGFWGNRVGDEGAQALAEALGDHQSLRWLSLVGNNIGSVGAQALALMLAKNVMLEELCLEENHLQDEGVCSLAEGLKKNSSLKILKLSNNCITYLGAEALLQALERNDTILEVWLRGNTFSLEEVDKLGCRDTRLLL
Trypsin, sequence (P00761 whole entry): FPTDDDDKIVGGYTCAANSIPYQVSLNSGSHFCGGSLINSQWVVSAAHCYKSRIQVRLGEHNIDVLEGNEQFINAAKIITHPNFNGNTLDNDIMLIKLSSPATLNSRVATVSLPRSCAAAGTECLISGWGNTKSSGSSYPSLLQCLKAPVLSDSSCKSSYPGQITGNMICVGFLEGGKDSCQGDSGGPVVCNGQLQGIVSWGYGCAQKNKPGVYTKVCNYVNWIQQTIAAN
CAAX prenyl protease 2 (Saccharomyces cerevisiae S288c, UniProt Q03530), sequence (Q03530 whole entry): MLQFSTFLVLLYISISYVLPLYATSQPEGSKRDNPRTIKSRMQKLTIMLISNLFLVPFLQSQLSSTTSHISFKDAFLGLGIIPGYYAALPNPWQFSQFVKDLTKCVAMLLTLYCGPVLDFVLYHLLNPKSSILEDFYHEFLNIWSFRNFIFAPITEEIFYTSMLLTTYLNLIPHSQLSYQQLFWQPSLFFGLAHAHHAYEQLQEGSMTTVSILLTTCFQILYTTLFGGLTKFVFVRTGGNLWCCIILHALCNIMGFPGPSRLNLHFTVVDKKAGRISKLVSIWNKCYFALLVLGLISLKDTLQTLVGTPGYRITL
Nonstructural protein 1, sequence (Q194T2 whole entry): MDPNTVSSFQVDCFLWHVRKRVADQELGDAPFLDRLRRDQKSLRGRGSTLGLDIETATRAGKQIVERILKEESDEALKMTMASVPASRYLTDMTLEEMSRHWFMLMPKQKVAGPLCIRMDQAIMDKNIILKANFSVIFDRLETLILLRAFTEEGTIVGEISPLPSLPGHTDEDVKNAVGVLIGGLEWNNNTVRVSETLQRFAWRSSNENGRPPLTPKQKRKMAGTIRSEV

SMILES: CCCn1c(C)cc(C(=O)COc2ccc(C)nc2[N+](=O)[O-])c1C
- EC50 (HEK293 [1]): > 20 µM (inactive)
- IC50 (HEK293 [2]): 3.81 µM (active)
- IC50 (HEK293 [3]): > 20 µM (inactive)
- EC50 [4]: 7.64 µM (active)
- IC50 (HEK293 [5]): > 20 µM (inactive)
- IC50 (HEK293 [6]): > 20 µM (inactive)
- IC50 (Nonstructural protein 1): > 100 µM (active)

SMILES: COC(=O)c1cc(C(=O)Nc2cc(C)ccn2)cc([N+](=O)[O-])c1
- AC50 (Escherichia coli [7]): 132 µM (active)
- AC50 (Escherichia coli [8]): 63.9 µM (active)

SMILES: N#Cc1c(-c2ccccc2)cc(C2CC2)nc1N
- EC50 (HEK293 [9]): > 59.7 µM (inactive)
- EC50 (HEK293 [10]): > 59.7 µM (inactive)

SMILES: Cc1nc(Nc2cnc(/C=C/c3cc(C(=O)Nc4cccc(C(F)(F)F)c4)ccc3C)cn2)cc(N2CCNCC2)n1
- EC50 (HEK293 [1]): 7.82 µM (active)
- EC50 [11]: 6.39 µM (active)
- IC50 (HEK293 [2]): > 20 µM (inactive)
- EC50 (Streptokinase A): 11.4 µM (active)
- IC50 (HEK293 [3]): > 20 µM (inactive)
- EC50 [4]: 8.28 µM (active)
- IC50 (HEK293 [5]): > 20 µM (inactive)
- IC50 (HEK293 [6]): > 20 µM (inactive)
- EC50 (Streptococcus): > 150 µM (not active)
- IC50 [12]: > 20 µM (inactive)
- AC50 (INS1): 8.7 µM (active)

SMILES: COc1ccc(C[C@H]2c3cc(O)c(OC)cc3CC[N+]2(C)[O-])cc1O (stereo not given in full)
- AC50 (Trypsin): 13.9 µM (active)
- AC50 (CAAX prenyl protease 2 [13]): 7.82 µM (active)
- AC50 (CAAX prenyl protease 2 [14]): 2.8 µM (active)
